How the values were obtained:
Assay type in all cases: functional, cell-based
[1] = biological target: T1, Metabotropic glutamate receptor 2 (Homo sapiens, UniProt Q14416); experiment: Agonist activity at human mGluR2 expressed in CHO cells at by [S35]GTPgammaS binding assay
Target sequence in this assay (Q14416 whole entry): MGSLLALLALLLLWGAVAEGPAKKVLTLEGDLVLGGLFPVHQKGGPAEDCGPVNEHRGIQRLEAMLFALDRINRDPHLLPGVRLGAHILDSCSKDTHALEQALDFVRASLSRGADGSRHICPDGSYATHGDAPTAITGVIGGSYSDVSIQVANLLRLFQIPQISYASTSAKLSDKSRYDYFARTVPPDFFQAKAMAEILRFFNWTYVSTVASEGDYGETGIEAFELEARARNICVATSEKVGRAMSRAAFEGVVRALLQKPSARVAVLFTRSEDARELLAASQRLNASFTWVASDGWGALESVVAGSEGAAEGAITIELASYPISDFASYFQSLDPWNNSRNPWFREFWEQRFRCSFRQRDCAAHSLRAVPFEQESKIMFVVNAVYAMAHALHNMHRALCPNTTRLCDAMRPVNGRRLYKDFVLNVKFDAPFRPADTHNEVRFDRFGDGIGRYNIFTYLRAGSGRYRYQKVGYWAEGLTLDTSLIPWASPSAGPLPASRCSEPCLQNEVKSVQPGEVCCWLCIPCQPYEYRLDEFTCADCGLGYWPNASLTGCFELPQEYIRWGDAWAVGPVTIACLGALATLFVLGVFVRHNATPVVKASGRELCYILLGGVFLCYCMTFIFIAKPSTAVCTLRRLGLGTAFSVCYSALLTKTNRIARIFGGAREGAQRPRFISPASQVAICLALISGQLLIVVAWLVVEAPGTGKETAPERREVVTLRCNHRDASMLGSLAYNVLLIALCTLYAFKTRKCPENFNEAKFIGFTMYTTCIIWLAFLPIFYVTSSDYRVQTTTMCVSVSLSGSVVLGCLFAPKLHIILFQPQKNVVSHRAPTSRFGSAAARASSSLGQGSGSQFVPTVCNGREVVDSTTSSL

[2] = biological target: T1, Metabotropic glutamate receptor 2; experiment: Agonist activity at human mGluR2 expressed in CHO cells at by [S35]GTPgammaS binding assay relative to glutamate
Target sequence in this assay (Q14416 19-872 limits assumed): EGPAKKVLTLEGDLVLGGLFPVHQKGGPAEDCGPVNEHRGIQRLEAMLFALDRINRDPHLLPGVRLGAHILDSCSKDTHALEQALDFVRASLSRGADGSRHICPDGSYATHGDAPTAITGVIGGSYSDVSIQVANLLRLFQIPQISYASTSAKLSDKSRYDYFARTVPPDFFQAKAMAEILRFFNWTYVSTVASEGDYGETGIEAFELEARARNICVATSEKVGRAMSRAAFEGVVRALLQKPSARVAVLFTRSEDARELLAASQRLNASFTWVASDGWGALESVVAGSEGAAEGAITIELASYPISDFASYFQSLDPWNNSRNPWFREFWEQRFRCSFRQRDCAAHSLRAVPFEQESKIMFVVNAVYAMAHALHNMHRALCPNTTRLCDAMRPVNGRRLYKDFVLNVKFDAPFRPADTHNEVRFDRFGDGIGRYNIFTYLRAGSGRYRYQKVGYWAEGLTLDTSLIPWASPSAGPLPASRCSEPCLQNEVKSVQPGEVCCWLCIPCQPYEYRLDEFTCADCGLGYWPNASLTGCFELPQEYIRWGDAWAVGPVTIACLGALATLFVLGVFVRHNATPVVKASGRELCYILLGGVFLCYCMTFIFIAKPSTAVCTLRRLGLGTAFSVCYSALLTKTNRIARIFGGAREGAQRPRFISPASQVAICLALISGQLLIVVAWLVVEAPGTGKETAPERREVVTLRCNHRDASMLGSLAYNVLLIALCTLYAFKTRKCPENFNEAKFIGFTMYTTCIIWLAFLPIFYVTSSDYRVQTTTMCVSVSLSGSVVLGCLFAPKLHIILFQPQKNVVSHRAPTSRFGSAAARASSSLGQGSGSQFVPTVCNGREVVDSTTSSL

[3] = biological target: T1, Metabotropic glutamate receptor 2; experiment: Agonist activity at human mGluR2 expressed in HEK293 cells assessed as induction of calcium release by FLIPR assay
Target sequence in this assay (Q14416 whole entry): as the sequence (Q14416 whole entry) above

CCCn1ccc2cc(-c3ccc(OCc4ccc(C(F)(F)F)nc4)cc3)cc(Cl)c2c1=O
EC50 [1]: 251 nM
Emax [2]: 170%

CCCn1ccc2cc(-c3ccc(OCc4ccc(Cl)nc4)cc3)cc(Cl)c2c1=O
EC50 [1]: 398 nM
Emax [2]: 81%

CCCn1ccc2cc(-c3ccc(Oc4ccccc4)cc3)cc(Cl)c2c1=O
EC50 [1]: 2000 nM
Emax [2]: 88%

CCCn1ccc2cc(N3CCOCC3)ccc2c1=O
EC50 [1]: > 10000 nM
Emax [2]: 66%

CCCn1ccc2cc(-c3cn[nH]c3)cc(Cl)c2c1=O
EC50 [1]: 1580 nM
Emax [2]: 65%

CCCn1ccc2cc(OCc3cccnc3)cc(Cl)c2c1=O
EC50 [1]: 2510 nM
Emax [2]: 126%

CCCn1ccc2cc(-c3ccc(Oc4ccccc4)nc3)cc(Cl)c2c1=O
EC50 [1]: 501 nM
Emax [2]: 92%

CCCn1ccc2cc(-c3ccc(OCCc4ccccc4)nc3)cc(Cl)c2c1=O
EC50 [1]: 631 nM
Emax [2]: 103%

CCCn1ccc2cc(OCCCc3cccnc3)cc(Cl)c2c1=O
EC50 [1]: 631 nM
Emax [2]: 75%

CCCn1ccc2cc(-c3ccc(OCc4cccnc4)nc3)cc(Cl)c2c1=O
EC50 [1]: 316 nM
Emax [2]: 120%

CCCn1ccc2cc(-c3ccc(N4CCOCC4)nc3)cc(Cl)c2c1=O
EC50 [1]: 794 nM
Emax [2]: 84%

CCCn1ccc2cc(-c3ccc(OCc4cccnc4)cc3)cc(Cl)c2c1=O
EC50 [1]: 1260 nM
Emax [2]: 64%

CCCn1ccc2cc(-c3ccncc3)cc(Cl)c2c1=O
EC50 [1]: 1260 nM
Emax [2]: 73%

CCCn1ccc2cc(NCc3cccnc3)cc(Cl)c2c1=O
EC50 [1]: 3160 nM
Emax [2]: 82%

CCCn1ccc2cc(-c3cnc(OC)c(F)c3)cc(Cl)c2c1=O
EC50 [1]: 398 nM
Emax [2]: 75%

CCCn1ccc2cc(-c3ccc(N(C)C)nc3)cc(Cl)c2c1=O
EC50 [1]: 5010 nM
Emax [2]: 85%

CCCn1ccc2cc(N3CCNCC3)cc(Cl)c2c1=O
EC50 [1]: > 10000 nM
Emax [2]: 47%

CCCn1ccc2cc(-c3cncnc3)cc(Cl)c2c1=O
EC50 [1]: 3980 nM
Emax [2]: 28%

CCCn1ccc2cc(-c3cccnc3)cc(Cl)c2c1=O
EC50 [1]: 631 nM
Emax [2]: 83%

CCCn1ccc2cc(OCCc3cccnc3)cc(Cl)c2c1=O
EC50 [1]: 794 nM
Emax [2]: 47%

CCCn1ccc2cc(-c3ccc(OC)cc3)cc(Cl)c2c1=O
EC50 [1]: 316 nM
Emax [2]: 136%

CCCn1ccc2cc(-c3ccc(Oc4ccncc4)cc3)cc(Cl)c2c1=O
EC50 [1]: 158 nM
Emax [2]: 90%

CCCn1ccc2cc(N3CCOCC3)cc(Cl)c2c1=O
EC50 [1]: 5010 nM
EC50 [3]: 2510 nM
Emax [2]: 104%

CCCn1ccc2cc(-c3cccnc3)ccc2c1=O
EC50 [1]: 7940 nM
Emax [2]: 81%

CCCn1ccc2cc(-c3cccnc3)cc(C#N)c2c1=O
EC50 [1]: > 50100 nM

CCCn1ccc2cc(N3CCC(O)CC3)cc(Cl)c2c1=O
EC50 [1]: 5010 nM
Emax [2]: 106%

CCCn1ccc2cc(-c3ccc(OC)nc3)cc(Cl)c2c1=O
EC50 [1]: 794 nM
Emax [2]: 121%
